Assay results published in publication PMC4695825 (Pharmaceutics, 2015).
Structures can show the parent of a compound that is named as a salt. Where two headings read alike, the source gives them in different places.

Experiments:
[1] = design: method as in PMID 20188808; settings: 400 μm needle length, cited from earlier work
[2] = cited from earlier work; for logP / water solubility: no reference given
[3] = cited from earlier work
[4] = design: method as in PMID 24333401; settings: nanostructured lipid carrier; cited from earlier work
[5] = mean ± SD, n = 6; for Microneedle cumulative amount after 12 h (Qs): skin treated with 500 μm microneedle roller
Experimental: Frozen porcine ears were obtained from Animal Technologies, Tyler, TX, USA. Skin pieces were thawed at ambient temperatures and carefully shaved using an electric clipper (Wahl, Sterling, IL, USA). Full thickness skin was prepared by removing the subcutaneous fat from the underlying cartilage. The average thickness of the skin membrane was measured with a Digimatic Micrometer (Mitutoyo, Tokyo, Japan). Skin samples were maintained at −20 °C for storage. Prior to experiments, the skin samples were thawed at room temperature before use.
In vitro permeation experiments were conducted using a six-celled, static, vertical Franz diffusion cell system (PermeGear, Hellertown, PA, USA). Each cell contained a top donor compartment and a lower receptor compartment with a magnetic stirrer, sampling port, and water jacket maintained at 37 °C to simulate normal body temperature by Thermo Haake DC10-P5/U heating circulator bath (ThermoFisher Scientific, Waltham, MA, USA). The receptor compartment diffusion area was 1.77 cm^2 with a volume capacity of 12 mL filled with PBS. Skin samples obtained from different pigs were placed between the upper donor chamber and lower receiver chamber of the vertical Franz diffusion cells, which were sealed using high-vacuum grease (Dow Corning, Midland, MA, USA) and a metal clamp. Solid microneedle rollers were used to created microchannels in porcine skin. Full thickness microneedle-treated porcine skins were mounted on three-receptor compartments and untreated porcine skins were placed on the remaining three-receptor compartments to serve as controls, and diffusion experiments for the two drugs were replicated six times (n = 6). The microneedle roller was applied fifteen times to each skin sample to increase the number of microconduits for enhanced transdermal drug delivery. […] The sampling ports were also covered with parafilm to further reduce evaporation. […] Receptor chambers were replenished with an equal volume of fresh, pre-warmed PBS maintained at 37 °C. All samples were stored at 4 °C until analysis by LC–MS. The cumulative amount of each drug permeating the excised full thickness porcine skin was plotted as a function of time. The slope and intercept of the linear portion were derived by linear regression analysis. Steady state flux was calculated from the linear portion of the cumulative amount versus time curve.
Chromatographic separation was carried out on the reverse-phase Agilent Zorbax Eclipse Plus C18 (100 mm × 2.1 mm, 3.5 microns) analytical column, which was protected by a guard column with the same stationary phase (12.5 mm × 4.6 mm, 5 microns) (Agilent Technologies, Palo Alto, CA, USA). The column temperature was set at 40 °C, and the autosampler temperature was set at 4 °C. The mobile phase consisted of 0.1% formic acid in water (solvent A), and 0.1% formic acid in methanol (solvent B). […] A post-run time of 2 min for mobile phase equilibration was used after each sample run. Calibration curve standards were freshly prepared in PBS buffer solution. The MS data were collected in positive electro spray ionization tandem mass spectrometry (ESI MS/MS) mode. Nebulizer temperature was 350 °C, nebulizer pressure was 50 psi, and the drying gas flow rate was 10.0 L/min. Compounds were quantified in positive ESI MS/MS mode by quantifying the specific product ion.
Flux values were calculated using the steady-state portion of the cumulative amount versus time curves. Six replicates were used for the study.

Compound: Nc1nc2c(ncn2COCCO)c(=O)[nH]1 [acyclovir]
- Flux enhancement after microneedle array pretreatment ([1]; 2000 needles/cm^2): significant enhancement
- Flux enhancement after microneedle array pretreatment ([1]; 5625 needle/cm^2): lower enhancement

Compound: NC12CC3CC(CC(C3)C1)C2 [amantadine hydrochloride, Amantadine hydrochloride]
- partition coefficient [2]: 2.44
- logP [2]: 2.4
- water solubility [2]: 50 mg/mL
- pharmacokinetic half-life [3]: 10 h

Compound: Cc1cc2c(s1)Nc1ccccc1N=C2N1CCN(C)CC1 [olanzapine]
- Change in transdermal permeation rate after microneedle device pretreatment [4]: slight but not statistically significant increase

Compound: CCCN[C@H]1CCc2nc(N)sc2C1 [pramipexole dihydrochloride]
- Microneedle-facilitated transdermal flux ([5]; full thickness porcine ear skin treated with 500 μm stainless steel microneedle roller, 37 °C, donor amantadine ~50 mg/mL or pramipexole ~1 mg/mL, steady state): 134.04 ± 0.98 μg/cm^2/h
- Microneedle cumulative amount after 12 h (Qs) ([5]; 12 h, listed as Pramipexole): 1583.43 ± 72.99 μg/cm^2
- Microneedle cumulative amount after 12 h (Qs) ([5]; 12 h, listed as pramipexole): 1583.43 μg/cm^2
- Passive (control) transdermal flux ([5]; untreated full thickness porcine ear skin, 37 °C, donor amantadine ~50 mg/mL or pramipexole ~1 mg/mL, steady state): 134.83 ± 13.66 μg/cm^2/h
- Passive (control) cumulative amount after 12 h (Qs) ([5]; untreated full thickness porcine ear skin, 12 h): 1607.86 ± 35.77 μg/cm^2
- logP [2]: 1.2
- water solubility [2]: > 20 mg/mL
- octanolphosphate buffer partition coefficient ([2]; pH 7.4): 0.135
- pharmacokinetic half-life [3]: 6 to 8 h
